Assay results as given in patent EP2147913A1, “Styrylquinolines, their process of preparation and their therapeutic uses” (BioAlliance Pharma, priority 2008, dated 2010).
Read-outs that look alike come from different tables or passages of the source.

Columns and labels:
[1] = Viability assay (MTT cytotoxicity); type: cell-based; conditions: human; for CC50 at 48 h: hela-p4 cells, 2 days
Method: The cytotoxicity of compounds was evaluated using un-infected and infected HeLa-P4 cell and CEM leukemia cells. CEM cell were obtained from the American Type Tissue Collection (Rockville, MD).
A serial dilution of drugs is done to evaluate the cytotoxicity concentration and is identified by CC50 (concentration of drug which induces 50% of cytotoxicity)
The HeLa-P4 was cultured in the presence or absence of compounds for 2 days. After this time period, cells were cultivated with MTT for 3 hours, further the medium is removed. And the lysis buffer is incubated for 1 hour, followed by plate reading at 540 nm in a microplate reader.

[2] = tested on: wild type HIV-1 virus (NL 4.3 strains); experiment: Antiviral activity assay CEM cells; type: cell-based; conditions: Human immunodeficiency virus 1, CCRF-CEM
Method: The activity is determined by infecting CEM cells with a wild type HIV-1 virus (NL 4.3 strains at 3ng) on cells in presence or absence of drugs.
A serial dilution of drugs is done to evaluate the EC50.
The effective concentration is the concentration of product at which virus replication is inhibited by 50 percent.
After 48 hours incubation, the quantification is done by the evaluation of the viral protein p24 with a commercial Elisa Kit. P24 is a protein essential to the replication virus cycle. The quantification of this enzyme is proportional to the amount of virus produced by the infected cells.

[3] = biological target: T1, HBX2 HIV integrase (Human immunodeficiency virus type 1 group M subtype B, UniProt P04585); experiment: 3' LTR Processing Assay; type: biochemical
T1 construct: The pET-15b-IN plasmid contains the cDNA encoding the HBX2 HIV integrase; His tag (N, cleaved yes); made in house; host or cells: Escherichia coli BL21 (DE3)
Method: (§1) The pET-15b-IN plasmid contains the cDNA encoding the HBX2 HIV integrase. His-tagged integrase protein was overexpressed in Escherichia coli BL21 (DE3) and purified under native conditions. Briefly, at an OD of 0.8, fusion protein expression was induced in bacterial cultures by the addition of IPTG (1 mM). Cultures were incubated for 3 h at […], after which cells were centrifuged. The cell pellet was resuspended in ice-cold buffer A [20 mM Tris-HCl (pH 8), 1 M NaCl, 4 mM β-mercaptoethanol, and 5 mM imidazole], treated with lysozyme for 1 h on ice, and sonicated. After centrifugation (30 min at 10 000 rpm), the supernatant was filtered (0.45 µm) and incubated for at least 2 h with Ni-NTA agarose beads (Pharmacia). The beads were washed twice with 10 volumes of buffer A, 10 volumes of buffer A with 50 mM imidazole, and 10 volumes of buffer A with 100 mM imidazole. His-tagged integrase was then eluted with buffer A supplemented with 50 µM ZnSO4 and 1 M imidazole. The integrase concentration was adjusted to 0.1 mg/mL in buffer A. The fusion protein was cleaved using thrombin and dialyzed overnight against 20 mM Tris-HCl (pH 8), 1 M NaCl, and 4 mM β-mercaptoethanol. After removal of biotinylated thrombin by incubation with streptavidin-agarose magnetic beads (Novagen, Madison, WI), a second dialysis was performed for 2 h against 20 mM Tris-HCl (pH 8), 1 M NaCl, 4 mM β-mercaptoethanol, and 20% (v/v) ethylene glycol. Fractions were aliquoted and rapidly frozen at -80°C.
(§2) Oligonucleotides U5B (5'-[…]-3'), U5B-2 (5'-GTGTGGAAAATCTCTAGCA-3'), U5A (5'-[…]-3') were purchased from Eurogentec (Liege, Belgium) and further purified on an 18% denaturing acrylamide/urea gel. For processing, strand transfer, 100 pmol of U5B, U5B-2, respectively, were radiolabeled using T4 polynucleotide kinase and 50 µCi of [γ-32P]ATP (3000 Ci/mmol). […]
Processing reaction was performed using U5A-U5B, in buffer containing 20 mM Tris (pH 7.2), 50 mM NaCl, 10 mM DTT, and 10mM MgCl2. […] Gels were analyzed using a STORM Molecular Dynamics phosphorimager and quantified with Image Quant™ 4.1 software.

[4] = tested on: wild type HIV-1 virus (NL 4.3 strains); experiment: Antiviral activity assay on Hela P4 cells; type: cell-based; conditions: Human immunodeficiency virus 1, HeLaP4, 48 h, read-out: P4 IC50 (µM)
Method: The antiviral activity is determined by infecting HelaP4 cells with a wild type HIV-1 virus (NL 4.3 strains at 3 ng) on cells in presence or absence of drugs.
A serial dilution of drugs is done to evaluate the EC50. The effective concentration is the concentration of product at which virus replication is inhibited by 50 percent.
After 48 hours incubation, the quantification is done by the evaluation of β-Galactosidase produced by the infected Hela P4 cells. The viral activity is evaluated by colorimetric assay, CPRG, followed by plate reading at 570 nm with a reference of 690 nm. The CPRG test is a colorimetric assay which allows to quantity the β-galactosidase produced by HIV-1 infected indicator cells (the β-Gal gene being under the control of the HIV-1 LTR).

[5] = biological target: T1, HBX2 HIV integrase; experiment: Strand Transfer Assay; type: biochemical
Method: as §1, §2
Processing, strand transfer reactions were performed using U5A-U5B-2, in buffer containing 20 mM Tris (pH 7.2), 50 mM NaCl, 10 mM DTT, 10mM MgCl2. […] Gels were analyzed using a STORM Molecular Dynamics phosphorimager and quantified with Image Quant™ 4.1 software.

[6] = U5A-U5B substrate DNA 12.5 nM, IN 200 nM, 10mM MgCl2, up to 2 h at 37°C, read-out: Processing IC50
[7] = U5A-U5B-2 substrate DNA 12.5 nM, IN 200nM, 10mM MgCl2, up to 2 h at 37°C, read-out: Transfert IC50

Compound	CC50 at 48 h ([1]; comparative example, read-out: Cytoto-IC50 IC50) [nM]	EC50 ([2]; CEM cells, NL 4.3, 48 hours, p24 Elisa, read-out: CEM) [µM]	IC50 [3] [nM]	IC50 [4] [µM]	IC50 at 2 days ([1]; HeLa-P4 cells) [nM]	IC50 [5] [nM]	EC50 ([2]; 48 h, read-out: CEM (µM)) [µM]	IC50 [3, 6] [nM]	CC50 at 48 h ([1]; read-out: Cytotoxicity IC50) [nM]	IC50 [5, 7] [nM]
COc1cc(/C=C/c2ccc3ccc(C(=O)O)c(O)c3n2)cc(O)c1O [FZ41, reference compound]	> 100000									
O=C(O)c1ccc2ccc(/C=C/c3cc(O)c(O)c(Cl)c3)nc2c1O [SQE41, (E)-2-(3-chloro-4,5-dihydroxystyryl)-8-hydroxyquinoline-7-carboxylic acid]		36	280	5	22500	280				
COc1cc(/C=C/c2ccc3ccc(Br)c(O)c3n2)cc(O)c1O [SQE63]				0.82			2.8	950	11700	950
O=C(O)c1ccc2ccc(/C=C/c3cc(O)c(O)c([N+](=O)[O-])c3)nc2c1O [SQE67]				6.2			42	150	35000	180
